The test system of one experiment is P. aeruginosa. The conditions noted are these: head to head with MPLA, 20 μg/mouse.
Experiment [1] relates to Gram negative and Gram positive bacterial infections. The conditions noted are these: mice primed with LPS; cited from earlier work.

“Also recorded” adds a separate entry of the source.

With `CCCCCCCCCCCCCC(=O)OC(CCCCCCCCCCC)CC(=O)NC1C(O)OC(COC2OC(CO)C(OP(=O)(O)O)C(OC(=O)CC(CCCCCCCCCCC)OC(=O)CCCCCCCCCCCCC)C2NC(=O)CC(CCCCCCCCCCC)OC(=O)CCCCCCCCCCCCC)C(O)C1O.N` (stereo not shown) [3D(6-acyl) PHAD, 3-D (6-acyl) phosphorylated hexaacyl disaccharide], in the experiment on P. aeruginosa, the “efficacy at augmenting host resistance to bacterial infection compared with MPLA” value was “as effective as MPLA”.
On the same count and under the same terms, next, `CCCCCCCCCCCCCC(=O)OC(CCCCCCCCCCC)CC(=O)NC1C(OCC2OC(O)C(NC(=O)CC(O)CCCCCCCCCCC)C(O)C2O)OC(CO)C(OP(=O)(O)O)C1OC(=O)CC(CCCCCCCCCCC)OC(=O)CCCCCCCCCCCCC.N` (stereo not shown) [3D-PHAD, 3-deacyl phosphorylated hexaacyl disaccharide]: “as effective as MPLA; also recorded: as efficacious as MPLA”.
As for `CCCCCCCCCCCCCC(=O)OC(CCCCCCCCCCC)CC(=O)NC1C(OCC2OC(O)C(NC(=O)CC(O)CCCCCCCCCCC)C(OC(=O)CC(O)CCCCCCCCCCC)C2O)OC(CO)C(OP(=O)(O)O)C1OC(=O)CC(CCCCCCCCCCC)OC(=O)CCCCCCCCCCCCC.N` (stereo not shown) [PHAD, phosphorylated hexaacyl disaccharide], the “efficacy at augmenting host resistance to bacterial infection compared with MPLA” value in the experiment with P. aeruginosa is “as effective as MPLA”.
For the compound Lipopolysaccharide [LPS], in experiment [1], the “resistance to infection of primed mice” value was “improved resistance to Gram negative and Gram positive bacterial infections”.

These data come from patent US11389465B2, “Phosphorylated hexaacyl disaccharides (PHADs) for treating or preventing infections” (VANDERBILT UNIVERSITY, priority 2017, dated 2022).
